Experimental data: PubChem BioAssay (NCI)
Where “and” joins values, the source holds several entries; their conditions need not be identical. Identical values can stand only once.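 1) Cells in 96-well plates. 2) Compound, 48 h, 5 concentrations. 3) Linear interpolation between surrounding doses. 4) Unreached endpoint = highest concentration. GI50 marks 50% less growth. At the TGI there is no net growth.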 *1 amine or outer side, *2 acyl side, *3 side chain or, on linkers, in order; H or OH if unused. Where a SMILES comes first, the peptide text is derived from it. Bridges are numbered along the chain shown (N, C = ends). [ ]: non-standard residue; d: D form. ξ: configuration not given here. X4 = CCC(C)C(N[*:1])C(O)CC(=O)O[C@H](C(=O)C(C)C(=O)[*:2])C(C)C; NMeY = CN[C@@H](Cc1ccc(O)cc1)C(=O)O; X9 = O=C([C@@H]1CC(O)CN1[*:1])[*:2]; ξNMeL = CNC(CC(C)C)C(=O)O; ξT = CC(O)C(N)C(=O)O

How the values were obtained:
Assay in all cases: NCI tumour cell line growth inhibition, 48 h
HCT-15 colon = tested on: HCT-15 colon
A549 NSCLC = tested on: A549 NSCLC
UO-31 renal = tested on: UO-31 renal
NCI-H522 lung = tested on: NCI-H522 lung
HCC-2998 colon = tested on: HCC-2998 colon
SF-539 CNS = tested on: SF-539 CNS
CCRF-CEM leukemia = tested on: CCRF-CEM leukemia
PC-3 prostate = tested on: PC-3 prostate
OVCAR-3 ovarian = tested on: OVCAR-3 ovarian
HS 578T breast = tested on: HS 578T breast

Row | Structure (SMILES) | TGI (HCT-15 colon) | TGI (A549 NSCLC) | TGI (UO-31 renal) | TGI (NCI-H522 lung) | TGI (HCC-2998 colon) | TGI (SF-539 CNS) | TGI (CCRF-CEM leukemia) | GI50 (PC-3 prostate) | TGI (PC-3 prostate) | GI50 (HCT-15 colon) | GI50 (OVCAR-3 ovarian) | TGI (OVCAR-3 ovarian) | GI50 (A549 NSCLC) | GI50 (UO-31 renal) | GI50 (SF-539 CNS) | GI50 (CCRF-CEM leukemia) | TGI (HS 578T breast) | GI50 (NCI-H522 lung) | GI50 (HS 578T breast) | GI50 (HCC-2998 colon)
1 | CCCOc1ccc(/C=C/c2cc(OC)c(OC)c(OC)c2)cc1 | 15.1 µM | > 100 µM | > 100 µM | 0.478 µM | > 100 µM | 0.754 µM | 24.5 µM | – | – | – | – | – | – | – | – | – | – | – | – | –
2 | O=c1cc/c(=N\Nc2ccccc2)c(=O)/c1=N/Nc1ccccc1 | > 50 µM | > 50 µM | > 50 µM | – | – | > 50 µM | > 50 µM | > 50 µM | > 50 µM | > 50000 nM | > 50 µM | > 50 µM | > 50 µM | > 50 µM | > 50 µM | > 50 µM | – | – | – | –
3 | CCCCCCC(C)CC(CCCCCC)NCCOC(=O)c1ccc([N+](=O)[O-])cc1 (stereo unspecified) | 33.1 µM and 26.7 µM | 30.3 µM and 29.8 µM | 23.8 µM and 22.2 µM | 28.4 µM and 26.2 µM | 42.8 µM and 9.35 µM | 30.1 µM and 27 µM | 12.6 µM and 18.3 µM | – | – | – | 7.59 µM and 2.95 µM | 23.6 µM and 17.5 µM | – | – | – | – | 41.5 µM and 41.1 µM | – | – | –
4 | CC1(C)CCSC(/C=C/c2ccccc2)=N1 | 21.7 µM | > 100 µM | – | 39.8 µM | – | 43.5 µM | > 100 µM | – | 30.5 µM | – | – | 28.5 µM | – | – | – | – | > 100 µM | – | – | –
5 | CCC(C)C1NC(=O)C(NC(=O)C(CC(C)C)N(C)C(=O)[C@@H]2CC(O)CN2)C(C)OC(=O)[C@H](Cc2ccc(OC)cc2)N(C)C(=O)[C@@H]2CCCN2C(=O)[C@H](CC(C)C)NC(=O)C(C)C(=O)[C@H](C(C)C)OC(=O)CC1O (stereo partly specified) (H-[X9][ξNMeL][ξT][X4]LP[NMeY](Me); ester 3-C) | 8.57 µM | 2.02 µM and 1 µM | 0.954 µM and 7.18 µM | 0.0519 µM and 0.0638 µM | 0.101 µM and 0.133 µM | 0.0152 µM and 0.0395 µM | – | – | 0.13 µM and 0.131 µM | 147 nM | 0.0166 µM | 0.11 µM and 0.295 µM | – | 0.711 µM | – | – | 0.0555 µM and 0.0238 µM | – | – | –
6 | COc1cc2c(cc1OCCCCCOc1cc(-c3ccc(F)cc3)nc(C)n1)N=C[C@@H]1CCCN1C2=O | > 77.9 µM | > 66.3 µM | > 59 µM | > 42.3 µM | – | > 100 µM | > 45.2 µM | > 33.3 µM | > 60.5 µM | > 41900 nM | > 38.2 µM | > 58.3 µM | > 41.2 µM | > 28.3 µM | > 100 µM | – | > 81.2 µM | > 20.5 µM | > 47.5 µM | –
7 | O=C(CC(=O)Nc1ccc(Cl)cc1)NNCC(=O)Nc1nc(-c2ccccc2)cs1 | – | > 100 µM | – | > 100 µM | > 100 µM | > 100 µM | > 100 µM | – | – | – | – | > 100 µM | – | – | – | – | – | – | – | –
8 | CC1C(=O)N=C2C(=CN(Cc3ccccc3)c3ccccc32)C(=O)N1C (stereo unspecified) | > 100 µM | > 100 µM | > 100 µM | > 100 µM | > 100 µM | > 100 µM | > 100 µM | – | > 100 µM | – | – | > 100 µM | – | – | – | – | – | – | – | –
9 | CC1CCC2(OC1)OC1CC3C4CC=C5CC(OC6OC(CO)C(OC7OC(C)C(OC8OC(C)C(O)C(O)C8O)C(O)C7O)C(O)C6OC6OC(C)C(O)C(O)C6O)CCC5(C)C4CCC3(C)C1C2C (stereo unspecified) | 2.92 µM | 1.39 µM | 1.67 µM | 2.17 µM | 1.37 µM | 1.52 µM | – | – | 2.08 µM | – | – | 3.31 µM | – | – | – | – | 1.77 µM | – | – | –
10 | CCNC(=O)C(O)C1(O)CCC2[C@@H]3CCC4=CC(=O)C=C[C@]4(C)C3[C@@H](O)C[C@@]21C (stereo partly specified) | > 100 µM | > 100 µM | > 100 µM | > 100 µM | > 100 µM | > 100 µM | > 100 µM | – | – | – | – | > 100 µM | – | – | – | – | – | – | – | –
11 | COc1ccc2[nH]c3c(cnn4cnnc34)c2c1 | > 100 µM | > 100 µM | > 100 µM | > 100 µM | > 100 µM | > 100 µM | > 100 µM | – | – | – | – | > 100 µM | – | – | – | – | – | – | – | –
12 | Cc1ccc2sc3cc(=O)cc(C)c-3nc2c1 | > 100 µM | > 100 µM | > 100 µM | > 100 µM | > 100 µM | > 100 µM | 93.8 µM | – | – | – | – | > 100 µM | – | – | – | – | – | – | – | –
13 | O=C1CCC(c2nc3ccccc3o2)C(=O)N1 (stereo unspecified) | > 100 µM | > 100 µM | > 100 µM | > 100 µM | > 100 µM | > 100 µM | > 100 µM | – | – | – | – | > 100 µM | – | – | – | – | – | – | – | –
14 | CCCCCCn1c(-c2ccc(C(=O)O/N=C(\N)c3ccc(OC)cc3)cc2)nc(-c2ccccc2)c1-c1ccccc1 | 2.87 µM | 3.36 µM | 1.48 µM | 3.72 µM | 4.81 µM | 3.02 µM | 2.85 µM | 1.67 µM | 4.16 µM | 1250 nM | – | – | 0.777 µM | 0.413 µM | 1.5 µM | 0.506 µM | 3.1 µM | 1.74 µM | 1.2 µM | 2.09 µM
15 | [N-]=[N+]=Nc1ncc(-c2ccc(C(F)(F)F)cc2)c(NC2CCCCCC2)n1 | > 10 µM | > 10 µM | > 10 µM | – | > 10 µM | > 10 µM | > 10 µM | > 10 µM | > 10 µM | > 10000 nM | > 10 µM | > 10 µM | > 10 µM | > 10 µM | > 10 µM | > 10 µM | – | – | – | > 10 µM
16 | COc1ccc(Cl)cc1N1C(=O)C(Cl)=C(Nc2cccc(O)c2)C1=O | 29.1 µM | 59.2 µM | 26.6 µM | 20.1 µM | – | – | 43.8 µM | 17.8 µM | 38.6 µM | 14400 nM | 11.5 µM | 36.5 µM | 20.1 µM | 13.2 µM | – | 14.5 µM | 46.2 µM | 6.48 µM | 15.8 µM | –
17 | COc1n[n+]([O-])c(C)cc1[N+](=O)[O-] | 13.9 µM | 24.6 µM | 25.4 µM | 22.7 µM | 27.6 µM | 35.4 µM | – | 15.9 µM | 32.6 µM | 2740 nM | 8.44 µM | 28.4 µM | 5.5 µM | 12.6 µM | 19.5 µM | – | 67.3 µM | 8.26 µM | 32.3 µM | 14.3 µM
18 | COC(=O)c1nc(-c2ccc(Cl)c(Cl)c2)nc2ccccc12 | > 100 µM | > 100 µM | > 100 µM | > 100 µM | > 100 µM | > 61.3 µM | > 100 µM | – | – | – | – | > 100 µM | – | – | – | – | – | – | – | –
19 | Cc1cc2c(cn1)C(=O)OCC2 | – | > 100 µM | > 100 µM | – | > 100 µM | > 100 µM | > 100 µM | – | – | – | – | > 100 µM | – | – | – | – | – | – | – | –
